Read-outs that look alike come from different tables or passages of the source. Marks after values point to notes of the source that are not given here. Each block holds one compound with its values, some of them ahead of it.
What was measured:
[1] = six trial participants, one of whom died; cited from earlier work
[2] = tested on: ChP epithelial barrier; test: ChP organoid small-molecule permeability, NMR analysis of media and iCSF; settings: for Presence in iCSF by NMR: after 2h incubation, 500 μM, L-Dopa in the presence of Carbidopa
Description: On day 5 media was replaced with NI media in the same 96-well. After two days EBs were embedded in 20 μl matrigel using sheets of dimpled parafilm and incubated for 20 min at 37° C. as previously described (2). EBs were then transferred to a 6-well plate with 3 ml of Expansion media per well. For ChP patterning, on day 10 treatment with 3 μM CHIR and 20 ng/ml BMP4 in Maturation media was used keeping a maximum number of 6 EBs in each 5 cm dish. The treatment was kept for 7 days in maturation media. On day 15 organoids were moved to an incubator with a shaker and were fed every 3-4 days with maturation media. From day 30 dissolved matrigel (1:50) was added to the maturation media.
For NMR experiments, ChP organoids were incubated in complete IDM+A media without phenol red and 1:50 Geltrex (Gibco, A14132-02) for 2 h, 12h, 24 h, 48h or 72h. Organoid media and iCSF were collected and centrifuged at 500 g for 5 min to remove debris. ^1H-NMR spectra were acquired using a Bruker Ultrashield 400 Plus operating at 400.1 MHz. Samples consisting of H2O/D2O mixtures were analyzed using HOD suppression to collect ^1H-NMR data. Chemical shifts (6) are shown in ppm. The yields of conversion were determined by relative integration of the signals in the ^1H-NMR spectra. Data analysis was performed using MestReNova (version 7.0) and GraphPad Prism (version 7.0b).
Because the NMR measurements of in vitro fluids detected unbound drug, the ratio (Km,uu,iCSF) was a simple function of the ratio of drug in in vitro CSF (Cu,iCSF) to drug in media (Cu,m) (eq E).
Thus, in order to test for such selective permeability to small molecules, we applied various therapeutically relevant small molecules and assayed their permeability by NMR analysis of organoid iCSF. […] We incubated the organoids with Dopa and with L-Dopa in the presence of Carbidopa, a small molecule that prevents the conversion of L-Dopa into Dopa (34, 35).

[3] = in vivo, from literature, cited from earlier work
[4] = tested on: ChP epithelial barrier; set-up: Km, uu, iCSF: unit not given beside the values
[5] = In vivo drug levels in CSF and blood plasma, and unbound CSF to plasma ratio (literature data); set-up: species or system humans; settings: human, calculated from literature values (Qalb 0.005)
Description: For comparison between in vitro and in vivo levels of small molecules in CSF, in vivo unbound CSF to blood plasma ratio, Kp,uu,CSF, was calculated as the ratio of the unbound drug in CSF (Cu,CSF) to that in blood plasma (Cu,p) similar to previously described (7) (eq A). The amount of unbound drug in each of CSF and plasma is the product of the total drug concentration (Cp) or (CCSF) and the fraction of drug that is unbound (fu,p) or (fu,CSF)(eqs B and C). Cp, CCSF, and fu,p were taken from literature (Table S2). However, because of the difficulty in obtaining large amounts of CSF, for most drugs fu,CSF is not known.

[6] = cited from earlier work
[7] = in vivo data from mouse
Excerpt: Pre-clinical or clinical data of this molecule in humans are not yet available, but Phase I clinical trials are under way so any additional human in vitro data would be informative.

[8] = cited from earlier work; remark: listed apart in the source
[9] = tested on: protein misfolding; settings: mouse model of Charcot-Marie Tooth-1B; cited from earlier work
[10] = total drug concentration in blood plasma
[11] = total drug concentration in CSF
[12] = in vivo data from mouse, estimate from graph in reference
[13] = unbound concentrations reported, average of two measurements

SMILES: CN(C(=O)n1cnc(-c2ccc[n+]([O-])c2)c1)C1CCCCC1 [BIA-10-2474]
Adverse effects in Phase I clinical trials [1]: severe neurotoxicity | Time course of the ratio in iCSF to media ([2]; 2 h, 12h, 24 h and 72h): continued to accumulate in the iCSF | Presence in iCSF by NMR [2]: able to cross the ChP epithelial barrier

SMILES: CC(NC(C)(C)C)C(=O)c1cccc(Cl)c1 (stereo not drawn) [Bupropion]
Cp [3, 10]: 29.8 ng/mL | Km, uu, iCSF [4]: 1.07

SMILES: NCCc1ccc(O)c(O)c1 [Dopamine]
Kp uu [5]: 0.185 | Entry into brain/CSF in vivo as established in the literature [6]: doesn't enter the brain in vivo | CCSF ([3]; Δ upon injection): 9.01 ng/mL | Cp ([3]; Δ upon injection): 67.4 ng/mL | Km, uu, iCSF [4]: 0.10

More lines, main results first:

iCSF/media ratio, L-Dopa compared to Dopa [4]: consistently higher
SMILES: N[C@@H](Cc1ccc(O)c(O)c1)C(=O)O [L-DOPA, Levodopa]
Entry into brain/CSF in vivo as established in the literature [6]: actively transported in to the CSF via the LAT-1 transporter | CCSF [3, 11]: ~150 ng/mL | Cp [3, 10]: ~400 ng/mL

Kp uu [5]: 0.04 | Km, uu, iCSF [4]: 0.01
SMILES: CN(Cc1cnc2nc(N)nc(N)c2n1)c1ccc(C(=O)N[C@@H](CCC(=O)O)C(=O)O)cc1 [Methotrexate]
Entry into brain/CSF in vivo as established in the literature [6]: poorly cross the BBB | CCSF [3, 11]: 0.27 µM | Cp [3, 10]: 15.8 µM

Kp, uu, CSF (total compound brain to plasma ratio) [7]: 10^# | Permeability in the human organoid model compared with the mouse model ([2]; 2h incubation, compared with published mouse data): much lower | Presence in iCSF by NMR [2]: detectable
SMILES: NC(N)=N/N=C/c1ccccc1Cl [Sephin 1]
CCSF [8, 12]: ~110 ng/g | Cp [8, 12]: ~11 ng/mL | BBB crossing in mouse ([8]; mouse): cross the BBB | CNS effect against protein misfolding [9]: protective CNS role against protein misfolding

Kp uu [5]: 0.042
SMILES: CC[C@]1(O)C[C@H]2CN(CCc3c([nH]c4ccccc34)[C@@](C(=O)OC)(c3cc4c(cc3OC)N(C=O)[C@H]3[C@@](O)(C(=O)OC)[C@H](OC(C)=O)[C@]5(CC)C=CCN6CC[C@]43[C@@H]65)C2)C1 [Vincristine]
Entry into brain/CSF in vivo as established in the literature [6]: poorly cross the BBB | CCSF [3, 13]: 0.000855 µM | Cp [3, 13]: 0.0205 µM

Reference: patent US12410407B2, “Choroid plexus organoids and methods for production thereof” (UNITED KINGDOM RESEARCH AND INNOVATION, priority 2019, dated 2025)
